Data published in US20190183961A1, “GLUTAMINE FOR PRESERVING, IMPROVING OR RESTORING KIDNEY FUNCTION” (Fresenius Kabi Deutschland GmbH, priority 2016, published 2019).
Where two headings read alike, the source gives them in different places. Peptide text beside a SMILES is read from it.

Tested on: 5/6 kidney nephrectomised rat model
Format: in vivo
Settings: for incidence of chronic progressive nephropathy (animals affected/animals examined) / effect on incidence/occurrence of chronic progressive nephropathy (in words): 9 days; for incidence of chronic progressive nephropathy (animals affected/animals examined): 5/6 nephrectomised rats; for effect on incidence/occurrence of chronic progressive nephropathy (in words): continuous i.v. infusion, all doses, versus nephrectomised control; for changes in blood levels of biomarkers for kidney and liver injury / treatment-related clinical signs / tolerability of intravenous infusion: rat, in vivo
Description: The effect of L-glutamine (administered in form of L-alanyl-L-glutamine; Dipeptiven™) following daily continuous intravenous infusion was examined in a 5/6 kidney nephrectomised rat model.
L-alanyl-L-glutamine was administered for 9 consecutive days. The effects attributable to L-glutamine (provided in form of alanyl-glutamine; Dipeptiven™) were determined by comparison to an L-alanine infusion.
To prevent protein overdose, the protein content of the animal food was adapted according to the L-alanyl-L-glutamine or L-alanine dose administered intravenously.
The study was conducted according to the following design:
Group 1 and 2 animals (control) received the vehicle (0.9% NaCl).
Groups 5 and 6 received Dipeptiven™ without any dilution, i.e. L-alanyl-L-glutamine in a concentration of 200 mg/ml.
Group 3 and 4 animals received diluted Dipeptiven™, i.e. L-alanyl-L-glutamine in a concentration of 13.33 and 80 mg/ml respectively.
Group 7 and 8 animals received L-alanine in a concentration of 32 and 80 mg/ml respectively.
All animals in groups 1 and 3 to 8 underwent a 5/6 nephrectomy. All animals in group 2 were “sham operated”, meaning the abdomen was opened and closed in the surgery, but the kidneys were not excised and remained in the body.
During the acclimatisation period, a polyurethane catheter was implanted into the posterior vena cava via the left femoral vein. Following implantation, the animals were maintained on continuous infusion with physiological saline prior to the start of treatment.
Morbidity/mortality checks were performed at least twice daily. Clinical observations were performed daily. A full clinical examination was performed daily. Individual body weights were recorded three times a week. Food consumption was measured three times a week for each cage of animals, including one measurement during the acclimatisation period. Clinical laboratory determinations were performed on selected animals on days −1 and on days 1 to 10. Animals were sampled for amino acid determination on days 1, 4, 7 and 10. Animals were fasted before blood sampling performed on day 10.
All animals were killed at the end of the treatment period (day 10) and necropsied. Organ/tissue samples were fixed and preserved at necropsy for all animals. Selected organs/tissues from all animals were examined histopathologically. In addition, selected organs/tissues from all animals were used for amino acid determination.

[1] = 3.0 g/kg/day continuous i.v. infusion, 9% protein in diet
[2] = groups 4 and 8: 3.0 g/kg/day, 9% protein in diet, control 60%

Structure (SMILES)	incidence of chronic progressive nephropathy (animals affected/animals examined) (1.2 g/kg/day continuous i.v. infusion, 10.8% protein in diet)	incidence of chronic progressive nephropathy (animals affected/animals examined) [1]	effect on incidence/occurrence of chronic progressive nephropathy (in words)	occurrence of chronic progressive nephropathy, percent of animals [2] [%]	changes in blood levels of biomarkers for kidney and liver injury	treatment-related clinical signs	tolerability of intravenous infusion	incidence of chronic progressive nephropathy (animals affected/animals examined) (0.5 g/kg/day continuous i.v. infusion, 12% protein in diet)	incidence of chronic progressive nephropathy (animals affected/animals examined) (7.5 g/kg/day continuous i.v. infusion, 4.5% protein in diet)	incidence of chronic progressive nephropathy (animals affected/animals examined) (7.5 g/kg/day continuous i.v. infusion, 12% protein in diet (amino acid overload))	incidence of chronic progressive nephropathy (animals affected/animals examined) (7.5 g/kg/day continuous i.v. infusion, 12% protein in diet (amino acid overload), listed as L-alanyl-L-glutamine)	occurrence of chronic progressive nephropathy, percent of animals (group 3: 0.5 g/kg/day, 12% protein in diet, control 60%) [%]	occurrence of chronic progressive nephropathy, percent of animals (group 5: 7.5 g/kg/day, 4.5% protein in diet, control 60%) [%]	occurrence of chronic progressive nephropathy, percent of animals (group 6: 7.5 g/kg/day, 12% protein in diet (amino acid overload)) [%]
C[C@H](N)C(=O)O [Ala, L-alanine]	4/5	3/5	did not	60	No treatment-related	No treatment-related clinical signs	overall well tolerated	–	–	–	–	–	–	–
C[C@H](N)C(=O)N[C@@H](CCC(N)=O)C(=O)O [Ala-Gln, L-alanyl-L-glutamine] (H-Ala-Gln-OH)	–	0/5	decreased incidence of chronic progressive nephropathy	0	No treatment-related	No treatment-related clinical signs	overall well tolerated	2/5	0/5	1/5	2/5	40	0	–
NC(=O)CC[C@H](N)C(=O)O [L-glutamine]	–	–	reduces the occurrence of chronic progressive nephropathy in a dose-dependent manner	–	–	–	–	–	–	–	–	–	–	20
